Results reported in US20230303570A1, “KINASE INHIBITORS AND USES THEREOF” (ABM Therapeutics Corporation, priority 2020, published 2023).

Target: HPK1 (MAP4K1) (Homo sapiens, UniProt Q92918)
Experiment: HPK1 (MAP4K1) kinase Lantha screen assay
Assay type: biochemical
Experimental: The effect of the compounds on the activity of HPK1 (MAP4K1) kinase were assessed by Lantha screen assay. • 1. 1×kinase buffer was prepared (50 mM HEPES, pH 7.5, 10 mM MgCl2, 4 mM DT • 2. Compound and assay plates preparation: • 2-1) The compound was diluted to 100× of the final desired highest inhibitor concentration in reaction by 100% DMSO. For example, if a compound was tested at […], then a solution at 500 µM in DMSO was prepared in this step. • 2-2) For each tested compound, the compound was transferred in tubes to one well on a 96-well storage plate and serially diluted by transferring […] of 100% DMSO in the next well and so forth for a total of 6 concentrations. • 2-3) 100 μl of 100% DMSO were added to two empty wells to serve as no compound control and no enzyme control in the same 96-well plate. The resulting plate was labeled as the source plate. • 2-4) 40 μl of compound from source plate were transferred to a new 384-well Echo plate as the intermediate plate. 100 nl of each well from the 384-well Echo plate were transferred to a 384-well assay plate in duplicates. For example, A1 of the 384-well Echo plate was transferred to A1 and A2 of the 384-well plate. A2 of the 384-well Echo plate was transferred to A3 and A4 of the 384-well plate, and so on; • 3. Kinase reaction: a solution of MAP4K1 in 1× kinase buffer at 2-fold the final concentration of each reagent in the assay was prepared. 5 μl of kinase solution was added to each well of the assay plate, except for control wells without enzyme (add 5 μl of 1× kinase buffer instead). The plate was then shaken, then incubated at room temperature for 10 min. A substrate solution of Fluorescein-PKC and ATP in 1× kinase reaction buffer at 2-fold of the final concentration of each reagent desired in the assay was prepared. 5 μl of substrate solution was added to each well of the assay plate to start reaction. The plate was shaken, then covered, and incubated at room temperature for 90 minutes.
Kinase detection: detection solution of 2-fold of final concentration in Antibody Dilution Buffer was prepared. 10 μl of detection solution was added to each well of the assay plate to stop the reaction. The mixtures were mixed briefly with Centrifuge and incubated at room temperature 60 minutes before reading on a plate reader for fluorescence. Data was collected on Envision with excitation at 340 nm and emission at 520 nm and 495 nm.

Sequence of HPK1 (MAP4K1) (Q92918 whole entry, species assumed): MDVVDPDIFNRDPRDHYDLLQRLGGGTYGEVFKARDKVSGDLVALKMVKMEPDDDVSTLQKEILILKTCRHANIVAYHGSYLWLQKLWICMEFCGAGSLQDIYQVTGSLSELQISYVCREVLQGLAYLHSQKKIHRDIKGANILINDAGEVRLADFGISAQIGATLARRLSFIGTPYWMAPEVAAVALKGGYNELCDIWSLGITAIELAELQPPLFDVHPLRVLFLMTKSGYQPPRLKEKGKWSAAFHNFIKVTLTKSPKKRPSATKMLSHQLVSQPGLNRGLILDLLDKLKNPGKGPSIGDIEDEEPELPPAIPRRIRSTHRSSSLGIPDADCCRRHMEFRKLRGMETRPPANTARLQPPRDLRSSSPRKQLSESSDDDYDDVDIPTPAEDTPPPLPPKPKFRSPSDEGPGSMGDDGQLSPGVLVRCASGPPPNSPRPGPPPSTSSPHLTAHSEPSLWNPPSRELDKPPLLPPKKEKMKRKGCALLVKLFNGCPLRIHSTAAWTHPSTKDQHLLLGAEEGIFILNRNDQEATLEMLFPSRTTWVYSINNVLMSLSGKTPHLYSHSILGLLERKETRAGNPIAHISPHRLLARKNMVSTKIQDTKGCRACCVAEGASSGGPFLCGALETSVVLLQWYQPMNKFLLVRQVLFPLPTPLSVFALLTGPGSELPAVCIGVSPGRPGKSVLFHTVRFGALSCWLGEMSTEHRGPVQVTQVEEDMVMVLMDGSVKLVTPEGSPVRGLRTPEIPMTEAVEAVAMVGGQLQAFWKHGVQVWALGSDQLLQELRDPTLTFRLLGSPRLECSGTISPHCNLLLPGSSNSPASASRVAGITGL

SMILES	IC50 [µM]
CNc1ncc2c(n1)N1CCN=C1C(c1cc(NC(=O)C3(C(=O)Nc4ccc(F)cc4)CC3)ccc1Cl)=C2 [Compound 342, N-(4-chloro-3-(2-(methylamino)-8,9-dihydroimidazo[1′,2′:1,6]pyrido[2,3-d]pyrimidin-6-yl)phenyl)-N-(4-fluorophenyl)cyclopropane-1,1-dicarboxamide]	0.1 to 10
CNc1ncc2c(n1)N1CCN=C1C(c1cc(NC(=O)c3cncc(C(F)(F)F)n3)ccc1C)=C2 [Compound 146, N-(4-methyl-3-(2-(methylamino)-8,9-dihydroimidazo[1′,2′:1,6]pyrido[2,3-d]pyrimidin-6-yl)phenyl)-6-(trifluoromethyl)pyrazine-2-carboxamide]	> 10
CC(=O)Nc1ncc2c(n1)N1CCN=C1C(c1cc(NC(=O)c3cc(C(F)(F)F)ccn3)ccc1C)=C2 [Compound 118, N-(3-(2-acetamido-8,9-dihydroimidazo[1′,2′:1,6]pyrido[2,3-d]pyrimidin-6-yl)-4-methylphenyl)-4-(trifluoromethyl)picolinamide]	0.1 to 10
CNc1nc(C)c2c(n1)N1CCN=C1C(c1cc(NC(=O)c3cc(C(F)(F)F)ccn3)ccc1Cl)=C2 [Compound 123, N-(4-chloro-3-(4-methyl-2-(methylamino)-8,9-dihydroimidazo[1′,2′:1,6]pyrido[2,3-d]pyrimidin-6-yl)phenyl)-4-(trifluoromethyl)picolinamide]	> 10
CNc1ncc2c(n1)N1CCN=C1C(c1ccc(F)c(C(=O)Nc3cc(C(F)(F)F)ccn3)c1)=C2 [Compound 278, 2-fluoro-5-(2-(methylamino)-8,9-dihydroimidazo[1′,2′:1,6]pyrido[2,3-d]pyrimidin-6-yl)-N-(4-(trifluoromethyl)pyridin-2-yl)benzamide]	> 10
CNc1ncc2c(n1)N1CCN=C1C(c1cc(NC(=O)c3cncc(Cl)c3)ccc1C)=C2 [Compound 160, 5-chloro-N-(4-methyl-3-(2-(methylamino)-8,9-dihydroimidazo[1′,2′:1,6]pyrido[2,3-d]pyrimidin-6-yl)phenyl)nicotinamide]	> 10
Cc1cc(F)c(NC(=O)c2cccc(C(C)(C)C#N)c2)cc1C1=Cc2cnc(NC3COC3)nc2N2CCN=C12 [Compound 180, 3-(2-cyanopropan-2-yl)-N-(2-fluoro-4-methyl-5-(2-(oxetan-3-ylamino)-8,9-dihydroimidazo[1′,2′:1,6]pyrido[2,3-d]pyrimidin-6-yl)phenyl)benzamide]	< 0.1
Cc1cnc(Nc2ncc3c(n2)N2CCN=C2C(c2cc(NC(=O)c4cc(C(F)(F)F)ccn4)ccc2C)=C3)s1 [Compound 232, N-(4-methyl-3-(2-((5-methylthiazol-2-yl)amino)-8,9-dihydroimidazo[1′,2′:1,6]pyrido[2,3-d]pyrimidin-6-yl)phenyl)-4-(trifluoromethyl)picolinamide]	< 0.1
CNc1ncc2c(n1)N1CCN=C1C(c1cc(NC(=O)c3cc(C(F)(F)F)ccn3)cnc1C)=C2 [Compound 191, N-(6-methyl-5-(2-(methylamino)-8,9-dihydroimidazo[1′,2′:1,6]pyrido[2,3-d]pyrimidin-6-yl)pyridin-3-yl)-4-(trifluoromethyl)picolinamide]	0.1 to 10
CNc1ncc2c(n1)N1CCN=C1C(c1cc(NC(=O)c3cc(C(C)(C)C#N)ccn3)c(F)cc1C)=C2 [Compound 165, 4-(2-cyanopropan-2-yl)-N-(2-fluoro-4-methyl-5-(2-(methylamino)-8,9-dihydroimidazo[1′,2′:1,6]pyrido[2,3-d]pyrimidin-6-yl)phenyl)picolinamide]	< 0.1
CNc1ncc2c(n1)N1CCN=C1C(c1cc(NC(=O)c3ccnc(C(F)(F)F)n3)ccc1C)=C2 [Compound 147, N-(4-methyl-3-(2-(methylamino)-8,9-dihydroimidazo[1′,2′:1,6]pyrido[2,3-d]pyrimidin-6-yl)phenyl)-2-(trifluoromethyl)pyrimidine-4-carboxamide]	> 10
CNc1ncc2c(n1)N1CCN=C1C(c1cc(NC(=O)c3nccc(C(F)(F)F)c3Cl)ccc1C)=C2 [Compound 152, 3-chloro-N-(4-methyl-3-(2-(methylamino)-8,9-dihydroimidazo[1′,2′:1,6]pyrido[2,3-d]pyrimidin-6-yl)phenyl)-4-(trifluoromethyl)picolinamide]	0.1 to 10
CNc1ncc2c(n1)N1CCN=C1C(c1cc(NS(=O)(=O)c3cccc(C(F)(F)F)c3)ccc1C)=C2 [Compound 283, N-(4-methyl-3-(2-(methylamino)-8,9-dihydroimidazo[1′,2′:1,6]pyrido[2,3-d]pyrimidin-6-yl)phenyl)-3-(trifluoromethyl)benzenesulfonamide]	> 10
O=C(Nc1ccc(Cl)c(C2=Cc3cnc(NC4COC4)nc3N3CCN=C23)c1)c1cc(C(F)(F)F)ccn1 [Compound 137, N-(4-chloro-3-(2-(oxetan-3-ylamino)-8,9-dihydroimidazo[1′,2′:1,6]pyrido[2,3-d]pyrimidin-6-yl)phenyl)-4-(trifluoromethyl)picolinamide]	< 0.1
Cc1ccc(NC(=O)c2cc(C(F)(F)F)ccn2)cc1C1=Cc2cnc(Nc3cnccc3O)nc2N2CCN=C12 [Compound 224, N-(3-(2-((4-hydroxypyridin-3-yl)amino)-8,9-dihydroimidazo[1′,2′:1,6]pyrido[2,3-d]pyrimidin-6-yl)-4-methylphenyl)-4-(trifluoromethyl)picolinamide]	0.1 to 10
Cc1ccc(NC(=O)c2cc(C(F)(F)F)ccn2)cc1C1=Cc2cnc(NC3COC3)nc2N2CCN=C12 [Compound 114, N-(4-methyl-3-(2-(oxetan-3-ylamino)-8,9-dihydroimidazo[1′,2′:1,6]pyrido[2,3-d]pyrimidin-6-yl)phenyl)-4-(trifluoromethyl)picolinamide]	< 0.1
CNc1ncc2c(n1)N1CCN=C1C(c1cc(NC(=O)c3cc(C(F)(F)F)ccn3)c(F)cc1C)=C2 [Compound 139, N-(2-fluoro-4-methyl-5-(2-(methylamino)-8,9-dihydroimidazo[1′,2′:1,6]pyrido[2,3-d]pyrimidin-6-yl)phenyl)-4-(trifluoromethyl)picolinamide]	< 0.1
Cc1ccncc1Nc1ncc2c(n1)N1CCN=C1C(c1cc(NC(=O)c3cc(C(F)(F)F)ccn3)ccc1C)=C2 [Compound 210, N-(4-methyl-3-(2-((4-methylpyridin-3-yl)amino)-8,9-dihydroimidazo[1′,2′:1,6]pyrido[2,3-d]pyrimidin-6-yl)phenyl)-4-(trifluoromethyl)picolinamide]	< 0.1
CNc1ncc2c(n1)N1CCN=C1C(c1cc(NC(=O)c3cc(C(F)(F)F)c[nH]c3=O)ccc1C)=C2 [Compound 153, N-(4-methyl-3-(2-(methylamino)-8,9-dihydroimidazo[1′,2′:1,6]pyrido[2,3-d]pyrimidin-6-yl)phenyl)-2-oxo-5-(trifluoromethyl)-1,2-dihydropyridine-3-carboxamide]	0.1 to 10
Cc1ccc(NC(=O)c2cc(C(F)(F)F)ccn2)cc1C1=Cc2cnc(NCC(C)(C)O)nc2N2CCN=C12 [Compound 113, N-(3-(2-((2-hydroxy-2-methylpropyl)amino)-8,9-dihydroimidazo[1′,2′:1,6]pyrido[2,3-d]pyrimidin-6-yl)-4-methylphenyl)-4-(trifluoromethyl)picolinamide]	< 0.1
Cc1ccc(NC(=O)c2cc(C(F)(F)F)ccn2)cc1C1=Cc2cnc(NS(C)(=O)=O)nc2N2CCN=C12 [Compound 117, N-(4-methyl-3-(2-(methylsulfonamido)-8,9-dihydroimidazo[1′,2′:1,6]pyrido[2,3-d]pyrimidin-6-yl)phenyl)-4-(trifluoromethyl)picolinamide]	> 10
CNc1ncc2c(n1)N1CCCN=C1C(c1cc(NC(=O)c3cc(C(F)(F)F)ccn3)ccc1C)=C2 [Compound 105, N-(4-methyl-3-(2-(methylamino)-9,10-dihydro-8H-pyrido[1,6-a:2,3-d′]dipyrimidin-6-yl)phenyl)-4-(trifluoromethyl)picolinamide]	0.1 to 10
CNc1ncc2c(n1)N1C[C@@H](C)N=C1C(c1cc(NC(=O)c3cc(C(F)(F)F)ccn3)ccc1C)=C2 [Compound 127, (R)—N-(4-methyl-3-(8-methyl-2-(methylamino)-8,9-dihydroimidazo[1′,2′:1,6]pyrido[2,3-d]pyrimidin-6-yl)phenyl)-4-(trifluoromethyl)picolinamide]	0.1 to 10
CNc1ncc2c(n1)N1CCN=C1C(c1cc(NC(=O)c3cc(C(F)(F)F)cc(-n4cnc(C)c4)n3)ccc1C)=C2 [Compound 157, 6-(4-methyl-1H-imidazol-1-yl)-N-(4-methyl-3-(2-(methylamino)-8,9-dihydroimidazo[1′,2′:1,6]pyrido[2,3-d]pyrimidin-6-yl)phenyl)-4-(trifluoromethyl)picolinamide]	0.1 to 10
